Biological target: T1, mu opiate receptor (MOR) (Rattus norvegicus, UniProt P33535)
T1 construct: from tissue; host or cells: striatal tissue (membrane preparation)
Test: MOR agonist activity using [35S]GTPγS binding assay in striatal membranes
Format: biochemical
Settings: for MOR agonist activity ([35S]GTPγS binding to Gαo), preliminary study: average of two runs; for MOR agonist activity, [35S]GTPγS binding, FLNA-binding compound as agonist at 0.1 μM / MOR agonist activity, [35S]GTPγS binding, 1 μM + BFNA / MOR agonist activity, [35S]GTPγS binding, FLNA-binding compound as agonist at 1 μM: striatal membranes; for MOR agonist activity, [35S]GTPγS binding, FLNA-binding compound as agonist at 0.1 μM / MOR agonist activity, [35S]GTPγS binding, FLNA-binding compound as agonist at 1 μM: Series C-2; for MOR agonist activity, [35S]GTPγS binding, 1 μM + BFNA: 1 μM compound + 1 μM β-FNA (MOR antagonist); for MOR agonist activity, [35S]GTPγS binding, FLNA-binding compound as agonist at 1 μM / % DAMGO (1 μM): 1 μM compound
Method: To assess the mu opiate receptor (MOR) agonist activity of positive compounds from the FLNA screening, compounds were tested in a [^35S]GTPγS binding assay using striatal membranes. […] This assay measures a functional consequence of receptor occupancy at one of the earliest receptor-mediated events. The assay permits for traditional pharmacological parameters of potency, efficacy and antagonist affinity, with the advantage that agonist measures are not subjected to amplification or other modulation that may occur when analyzing parameters further downstream of the receptor.
Thus, striatal tissue was homogenized in 10 volumes of ice cold 25 mM HEPES buffer, pH 7.4, which contained 1 mM EGTA, 100 mM sucrose, 50 μg/ml leupeptin, 0.04 mM PMSF, 2 μg/ml soybean trypsin inhibitor and 0.2% 2-mercaptoethanol. The homogenates were centrifuged at 800×g for 5 minutes and the supernatants were centrifuged at 49,000×g for 20 minutes.
The resultant striatal membrane preparation (200 μg) was admixed and maintained (incubated) at 30° C. for 5 minutes in reaction buffer as above that additionally contained 1 mM MgCl2 and 0.5 nM [^35S]GTPγS (0.1 μCi/assay, PerkinElmer Life and Analytical Sciences) in a total volume of 250 μl and continued for 5 minutes in the absence or presence of 0.1-10 μM of an assayed compound of interest. The reaction was terminated by dilution with 750 μl of ice-cold reaction buffer that contained 20 mM MgCl2 and 1 mM EGTA and immediate centrifugation at 16,000×g for 5 minutes.
Normal rabbit serum (1 μl) was added to 1 ml of lysate and incubated at 25° C. for 30 minutes. Nonspecific immune complexes were removed by incubation with 25 μl of protein A/G-conjugated agarose beads at 25° C. for 30 minutes followed by centrifugation at 5,000×g at 4° C. for 5 minutes. The supernatant was divided and separately incubated at 25° C. for 30 minutes with antibodies raised against Gαo proteins (1:1,000 dilutions).
The immunocomplexes so formed were collected by incubation at 25° C. for 30 minutes with 40 μl of agarose-conjugated protein A/G beads and centrifugation at 5,000×g at 4° C. for 5 minutes. The pellet was washed and suspended in buffer containing 50 mM Tris-HCl, pH 8.0, and 1% NP-40. The radioactivity in the suspension was determined by liquid scintillation spectrometry.

[1] = Series C-1, 1 μM compound + BFNA relative to DAMGO + BFNA

T1 sequence (P33535 whole entry): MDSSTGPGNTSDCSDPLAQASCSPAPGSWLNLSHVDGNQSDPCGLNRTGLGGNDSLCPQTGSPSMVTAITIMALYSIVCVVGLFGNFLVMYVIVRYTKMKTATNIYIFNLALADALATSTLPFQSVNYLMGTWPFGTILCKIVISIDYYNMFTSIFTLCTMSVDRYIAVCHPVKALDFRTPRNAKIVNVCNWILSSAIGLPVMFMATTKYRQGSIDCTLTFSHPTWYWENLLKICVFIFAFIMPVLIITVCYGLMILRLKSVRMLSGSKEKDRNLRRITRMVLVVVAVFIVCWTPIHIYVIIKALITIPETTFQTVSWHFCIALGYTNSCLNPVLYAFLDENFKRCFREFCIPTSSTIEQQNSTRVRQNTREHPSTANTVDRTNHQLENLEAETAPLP

Compound	MOR agonist activity, [35S]GTPγS binding, FLNA-binding compound as agonist at 0.1 μM (0.1 μM compound) [%]	MOR agonist activity, [35S]GTPγS binding, 1 μM + BFNA [%]	MOR agonist activity, [35S]GTPγS binding, FLNA-binding compound as agonist at 1 μM [%]	further results
C[C@@H](NC(=O)[C@@H](N)Cc1ccc(O)cc1)C(=O)NCC(=O)N(C)[C@@H](Cc1ccccc1)C(=O)NCCO [DAMGO, [D-Ala2, N-MePhe4, Gly-ol]-enkephalin, reference compound]	168.5	53.2	266.1	MOR agonist activity ([35S]GTPγS binding to Gαo), preliminary study (0.1 μM compound as agonist): 144.7%; MOR agonist activity ([35S]GTPγS binding to Gαo), preliminary study (1 μM + βNFA): 56.8%; MOR agonist activity ([35S]GTPγS binding to Gαo), preliminary study (1 μM compound as agonist): 233.4%
CC(=O)c1ccc(S(=O)(=O)N2CCC3(CC2)OCCN3S(=O)(=O)c2ccc(C(C)=O)cc2)cc1 [Compound C0011]	217.0	19.0	305.0	–
COc1ccc(S(=O)(=O)N2CCOC23CCCNC3)cc1 (stereo not drawn) [Compound C0145M-3]	193.0	87.0	289.2	–
Cc1ccc(S(=O)(=O)N2CCOC23CCN(CC2CC2)CC3)cc1 [Compound C0134M]	158.5	46.6	207.3	MOR agonist activity ([35S]GTPγS binding to Gαo), preliminary study (0.1 μM compound as agonist): 150.7%; % DAMGO (0.1 μM) (0.1 μM compound, relative to DAMGO): 94.6%; MOR agonist activity ([35S]GTPγS binding to Gαo), preliminary study (1 μM + βNFA): 53.2%; % DAMGO + BFNA (1 μM compound + BFNA, relative to DAMGO + BFNA): 98.1%; MOR agonist activity ([35S]GTPγS binding to Gαo), preliminary study (1 μM compound as agonist): 224.0%; % DAMGO (1 μM) (relative to DAMGO): 93.3%
CC(=O)c1ccc(S(=O)(=O)N2CCOC23CCN(CC2CC2)CC3)cc1 [Compound C0095M]	189.1	107.7	224.6	–
CCN1CCC2(CC1)OCCN2S(=O)(=O)c1ccc(C(C)=O)cc1 [Compound C0094M]	172.5	115.3	263.5	–
O=S(=O)(c1cccc2cccnc12)N1CCC2(CC1)OCCN2S(=O)(=O)c1cccc2cccnc12 [Compound C0143M]	81.0	86.5	193.3	–
COc1ccc(S(=O)(=O)N2CCC3(CC2)NCCC(=O)N3)cc1 [Compound C0142M]	143.7	98.7	192.5	–
O=[N+]([O-])c1ccc(S(=O)(=O)N2CCC3(CC2)NCCO3)cc1 [Compound C0040]	145.8	90.4	308.3	–
COc1ccc(S(=O)(=O)N2CCOC23CCNCC3)cc1 [Compound C0027]	233.2	72.2	313.9	–
CC(=O)c1ccc(S(=O)(=O)N2CC(CN(C)C)OC23CCNCC3)cc1 (stereo not drawn) [Compound C0118M]	166.2	79.2	261.5	–
CN1CCC2(CC1)OCCN2S(=O)(=O)c1ccc(S(C)(=O)=O)cc1 [Compound C0106M]	171.8	117.2	240.7	–
COc1c2c(cc3c1C(CC(=O)c1ccc(F)c(F)c1)[N+](C)(C)CC3)OCO2 (stereo not drawn) [Compound B0003]	–	–	–	% DAMGO + BFNA (Series B, 1 μM compound + BFNA relative to DAMGO + BFNA): 29.0%
CCCCN1CCC2(CC1)OCCN2S(=O)(=O)c1ccc(C(C)=O)cc1 [Compound C0101M]	138.2	174.8	274.3	–
C=CCN1CCC2(CC1)OCCN2S(=O)(=O)c1ccc(OC)cc1 [Compound C0091M]	207.9	80.8	274.4	–
CS(=O)(=O)c1ccc(S(=O)(=O)N2CCOC23CCN(CC2CC2)CC3)cc1 [Compound C0126M]	181.8	108.5	265.3	–
O=S(=O)(c1ccc(OC(F)(F)F)cc1)N1CCC2(CC1)OCCN2S(=O)(=O)c1ccc(OC(F)(F)F)cc1 [Compound C0006]	–	–	–	% DAMGO + BFNA [1]: 7.2%
O=[N+]([O-])c1ccc(S(=O)(=O)N2CCC3(CC2)NCCS3)cc1 [Compound C0044]	173.7	59.1	280.1	–
CC(=O)c1ccc(S(=O)(=O)N2CCC3(CC2)NCCS3)cc1 [Compound C0060]	166.5	143.9	218.9	–
CN1CCC2(CC1)NC(=O)CN2Cc1ccccc1 [Compound C0104M]	188.2	143.8	238.9	–
CC(=O)c1ccc(S(=O)(=O)N2C(Cc3c[nH]cn3)C(=O)NC23CCNCC3)cc1 (stereo not drawn) [Compound C0119M]	105.7	35.1	167.8	% DAMGO (1 μM) (relative to DAMGO): 83.0%
O=[N+]([O-])c1ccc(S(=O)(=O)N2CCC3(CC2)NCCCO3)cc1 [Compound C0045]	149.2	105.3	238.8	–
COc1cccc(S(=O)(=O)N2CCC3(CC2)OCCN3S(=O)(=O)c2cccc(OC)c2)c1 [Compound C0002]	–	–	–	% DAMGO + BFNA [1]: 6.1%
CC(=O)N1CCSC12CCN(S(=O)(=O)c1ccc([N+](=O)[O-])cc1)CC2 [Compound C0050]	110.3	59.0	127.6	–
CC(=O)c1ccc(S(=O)(=O)N2CC(=O)NC23CCNCC3)cc1 [Compound C0086M]	206.8	152.3	265.3	–
CC(C)c1ccc(S(=O)(=O)N2CCC3(CC2)OCCN3S(=O)(=O)c2ccc(C(C)C)cc2)cc1 [Compound C0007]	–	–	–	% DAMGO (0.1 μM) (Series C-1, 0.1 μM compound relative to DAMGO (0.1 μM)): 46.0%; % DAMGO + BFNA [1]: 17.0%

— patent US10222368B2 (priority 2012, dated 2019)
